Results taken from ChEMBL document CHEMBL2074166, “Transport of fluorescein in MDCKII-MRP1 transfected cells and mrp1-knockout mice” (Biochem Biophys Res Commun, 2001).

Biological target: Multidrug resistance-associated protein 1 (Homo sapiens, UniProt P33527)
Assay: TP_TRANSPORTER: intracellular accumulation in MRP1-expressing MDCKII cells
Assay type: functional, cell-based
Conditions: dog, mdck-ii

Multidrug resistance-associated protein 1, sequence (P33527 whole entry): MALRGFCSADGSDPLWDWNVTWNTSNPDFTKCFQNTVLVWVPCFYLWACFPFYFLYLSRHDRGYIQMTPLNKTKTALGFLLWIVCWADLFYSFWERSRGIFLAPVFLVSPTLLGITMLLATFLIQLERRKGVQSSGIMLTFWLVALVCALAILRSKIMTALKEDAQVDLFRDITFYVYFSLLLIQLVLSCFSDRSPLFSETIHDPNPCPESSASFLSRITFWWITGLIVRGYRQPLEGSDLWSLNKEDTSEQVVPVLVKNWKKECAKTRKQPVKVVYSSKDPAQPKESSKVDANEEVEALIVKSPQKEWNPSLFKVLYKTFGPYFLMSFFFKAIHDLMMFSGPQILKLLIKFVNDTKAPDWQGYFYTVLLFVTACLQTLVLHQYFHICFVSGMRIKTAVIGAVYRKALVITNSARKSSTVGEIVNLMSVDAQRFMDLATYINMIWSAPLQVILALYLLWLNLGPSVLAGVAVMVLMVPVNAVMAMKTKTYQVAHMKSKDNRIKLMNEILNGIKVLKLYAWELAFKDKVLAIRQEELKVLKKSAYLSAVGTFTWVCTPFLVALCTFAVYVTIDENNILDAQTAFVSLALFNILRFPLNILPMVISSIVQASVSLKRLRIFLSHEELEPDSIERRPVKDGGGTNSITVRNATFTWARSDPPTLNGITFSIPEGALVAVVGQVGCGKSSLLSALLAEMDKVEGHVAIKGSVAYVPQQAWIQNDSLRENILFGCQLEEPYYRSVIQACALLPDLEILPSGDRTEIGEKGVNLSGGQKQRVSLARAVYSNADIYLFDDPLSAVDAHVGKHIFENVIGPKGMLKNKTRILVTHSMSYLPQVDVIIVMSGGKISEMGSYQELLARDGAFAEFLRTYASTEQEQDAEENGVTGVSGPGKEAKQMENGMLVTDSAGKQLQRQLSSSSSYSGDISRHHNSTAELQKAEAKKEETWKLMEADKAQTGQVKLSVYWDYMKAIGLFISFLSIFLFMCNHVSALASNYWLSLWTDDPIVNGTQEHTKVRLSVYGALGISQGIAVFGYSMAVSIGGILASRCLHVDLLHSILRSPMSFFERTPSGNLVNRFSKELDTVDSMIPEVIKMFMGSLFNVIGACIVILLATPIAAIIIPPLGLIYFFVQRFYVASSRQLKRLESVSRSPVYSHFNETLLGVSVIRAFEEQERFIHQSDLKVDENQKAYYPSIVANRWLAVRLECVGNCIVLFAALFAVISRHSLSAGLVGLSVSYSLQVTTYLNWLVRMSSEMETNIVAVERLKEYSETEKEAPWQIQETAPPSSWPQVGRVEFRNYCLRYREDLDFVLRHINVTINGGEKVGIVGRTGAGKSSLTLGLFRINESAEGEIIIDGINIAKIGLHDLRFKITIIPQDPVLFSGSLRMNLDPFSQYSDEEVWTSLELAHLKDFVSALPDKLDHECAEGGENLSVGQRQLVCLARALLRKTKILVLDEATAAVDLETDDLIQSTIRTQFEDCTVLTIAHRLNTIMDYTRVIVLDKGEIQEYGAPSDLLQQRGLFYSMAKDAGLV

O=C1OC2(c3ccc(O)cc3Oc3cc(O)ccc32)c2ccccc21 [FLUORESCEIN]
Activity: substrate [+]
